Results published in ChEMBL document CHEMBL1201862, “PubChem BioAssay data set” (2004).
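Assay format: 96-well plates, 48-hour exposure. GI50 marks 50% less growth.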 The source made the active and inactive calls. No stated cut-off is given here; in the data, active = GI50 up to about 1.1 µM and inactive = higher.

Tests used:
Test in all cases: NCI anticancer screen, dose series, 48 h
SN12C = system: SN12C
IGROV-1 = system: IGROV-1
MCF7 = system: MCF7
HOP-92 = system: HOP-92
OVCAR-8 = system: OVCAR-8
Malme-3M = system: Malme-3M
BT-549 = system: BT-549
OVCAR-5 = system: OVCAR-5
SNB-75 = system: SNB-75
SK-MEL-5 = system: SK-MEL-5
SK-OV-3 = system: SK-OV-3
NCI-H460 = system: NCI-H460
T47D = system: T47D
ACHN = system: ACHN
NCI-H522 = system: NCI-H522
A549 = system: A549
SK-MEL-2 = system: SK-MEL-2
OVCAR-4 = system: OVCAR-4
SF-268 = system: SF-268
MDA-MB-231 = system: MDA-MB-231
EKVX = system: EKVX
HT-29 = system: HT-29
SNB-19 = system: SNB-19
HOP-62 = system: HOP-62
Hs-578T = system: Hs-578T
UO-31 = system: UO-31
COLO 205 = system: COLO 205
M14 = system: M14
UACC-62 = system: UACC-62
SF-295 = system: SF-295
UACC-257 = system: UACC-257
SR = system: SR
NCI/ADR-RES = system: NCI/ADR-RES
NCI-H226 = system: NCI-H226
PC-3 = system: PC-3
LOX IMVI = system: LOX IMVI
MOLT-4 = system: MOLT-4
SW-620 = system: SW-620
HCT-15 = system: HCT-15
OVCAR-3 = system: OVCAR-3
HL-60 = system: HL-60
TK-10 = system: TK-10
HCC 2998 = system: HCC 2998
MDA-MB-435 = system: MDA-MB-435
786-0 = system: 786-0
CCRF-CEM = system: CCRF-CEM
HCT-116 = system: HCT-116
NCI-H23 = system: NCI-H23
RPMI-8226 = system: RPMI-8226
K562 = system: K562
U-251 = system: U-251
RXF 393 = system: RXF 393
CAKI-1 = system: CAKI-1
DU-145 = system: DU-145
KM12 = system: KM12

For `O=S(=O)(O)Oc1cc2c(c(OS(=O)(=O)O)c1)C[C@H](OS(=O)(=O)O)[C@@H](c1ccc(OS(=O)(=O)O)c(OS(=O)(=O)O)c1)O2`, the GI50 (SN12C) was > 100 µM (inactive), the GI50 (IGROV-1) was > 100 µM (inactive) and the GI50 (MCF7) was > 100 µM (inactive). The GI50 (HOP-92) was > 100 µM (inactive), the GI50 (OVCAR-8) was > 100 µM (inactive) and the GI50 (Malme-3M) was > 100 µM (inactive). For the same molecule, the GI50 (BT-549) was > 100 µM (inactive), the GI50 (OVCAR-5) was > 100 µM (inactive) and the GI50 (SNB-75) was 43.6 µM (inactive). The GI50 (SK-MEL-5) was > 100 µM (inactive), the GI50 (SK-OV-3) was > 100 µM (inactive) and the GI50 (NCI-H460) was > 100 µM (inactive). For the same molecule, the GI50 (T47D) was > 100 µM (inactive), the GI50 (ACHN) was > 100 µM (inactive) and the GI50 (NCI-H522) was > 100 µM (inactive). The GI50 (A549) was > 100 µM (inactive), the GI50 (SK-MEL-2) was > 100 µM (inactive) and the GI50 (OVCAR-4) was > 100 µM (inactive). For the same molecule, the GI50 (SF-268) was > 100 µM (inactive), the GI50 (MDA-MB-231) was 85.7 µM (inactive) and the GI50 (EKVX) was > 100 µM (inactive). The GI50 (HT-29) was > 100 µM (inactive), the GI50 (SNB-19) was > 100 µM (inactive) and the GI50 (HOP-62) was > 100 µM (inactive). For the same molecule, the GI50 (Hs-578T) was > 100 µM (inactive), the GI50 (UO-31) was > 100 µM (inactive) and the GI50 (COLO 205) was > 100 µM (inactive). For the same molecule, the GI50 (M14) was > 100 µM (inactive), the GI50 (UACC-62) was > 100 µM (inactive) and the GI50 (SF-295) was > 100 µM (inactive). The GI50 (UACC-257) was > 100 µM (inactive), the GI50 (SR) was > 100 µM (inactive) and the GI50 (NCI/ADR-RES) was > 100 µM (inactive). The GI50 (NCI-H226) was > 100 µM (inactive), the GI50 (PC-3) was > 100 µM (inactive) and the GI50 (LOX IMVI) was > 100 µM (inactive). For the same molecule, the GI50 (MOLT-4) was > 100 µM (inactive), the GI50 (SW-620) was > 100 µM (inactive) and the GI50 (HCT-15) was > 100 µM. The GI50 (OVCAR-3) was > 100 µM (inactive).

For `CC1(C)C(=O)N(O)C(C)(C)N1N=O`, the GI50 (HL-60) was > 10 µM (inactive), the GI50 (SN12C) was > 10 µM (inactive) and the GI50 (TK-10) was > 10 µM (inactive). The GI50 (MCF7) was > 10 µM (inactive), the GI50 (HOP-92) was > 10 µM (inactive) and the GI50 (OVCAR-8) was > 10 µM (inactive). The GI50 (Malme-3M) was > 10 µM (inactive), the GI50 (BT-549) was > 10 µM (inactive) and the GI50 (OVCAR-5) was > 10 µM (inactive). For the same molecule, the GI50 (HCC 2998) was > 10 µM (inactive), the GI50 (MDA-MB-435) was > 10 µM (inactive) and the GI50 (786-0) was > 10 µM (inactive). The GI50 (NCI-H460) was > 10 µM (inactive), the GI50 (T47D) was > 10 µM (inactive) and the GI50 (ACHN) was > 10 µM (inactive). For the same molecule, the GI50 (NCI-H522) was > 10 µM (inactive), the GI50 (A549) was > 10 µM (inactive) and the GI50 (CCRF-CEM) was > 10 µM (inactive). For the same molecule, the GI50 (SK-MEL-2) was > 10 µM (inactive), the GI50 (OVCAR-4) was > 10 µM (inactive) and the GI50 (SF-268) was > 10 µM (inactive). For the same molecule, the GI50 (MDA-MB-231) was > 10 µM (inactive), the GI50 (EKVX) was > 10 µM (inactive) and the GI50 (HT-29) was > 10 µM (inactive). The GI50 (HCT-116) was > 10 µM (inactive), the GI50 (SNB-19) was > 10 µM (inactive) and the GI50 (HOP-62) was > 10 µM (inactive). The GI50 (UO-31) was > 10 µM (inactive), the GI50 (NCI-H23) was > 10 µM (inactive) and the GI50 (RPMI-8226) was 1.89 µM (inactive). The GI50 (COLO 205) was > 10 µM (inactive), the GI50 (M14) was > 10 µM (inactive) and the GI50 (K562) was > 10 µM (inactive). For the same molecule, the GI50 (U-251) was > 10 µM (inactive), the GI50 (SF-295) was > 10 µM (inactive) and the GI50 (UACC-257) was > 10 µM (inactive). The GI50 (SR) was > 10 µM (inactive), the GI50 (NCI/ADR-RES) was > 10 µM (inactive) and the GI50 (NCI-H226) was > 10 µM (inactive). The GI50 (RXF 393) was > 10 µM (inactive), the GI50 (PC-3) was > 10 µM (inactive) and the GI50 (CAKI-1) was > 10 µM (inactive). The GI50 (DU-145) was > 10 µM (inactive), the GI50 (MOLT-4) was > 10 µM (inactive) and the GI50 (SW-620) was > 10 µM (inactive). The GI50 (KM12) was > 10 µM (inactive), the GI50 (HCT-15) was > 10 µM and the GI50 (OVCAR-3) was > 10 µM (inactive).
